The record followed here is BindingDB's records for doi:10.7270/Q27H1H0J (Srmlsc, 2008).

pIC50: −log10 of the molar value.

For this test, the target named is T1, M1 family aminopeptidase (Plasmodium falciparum (isolate FcB1 / Columbia), UniProt O96935).
T1 sequence (O96935 whole entry): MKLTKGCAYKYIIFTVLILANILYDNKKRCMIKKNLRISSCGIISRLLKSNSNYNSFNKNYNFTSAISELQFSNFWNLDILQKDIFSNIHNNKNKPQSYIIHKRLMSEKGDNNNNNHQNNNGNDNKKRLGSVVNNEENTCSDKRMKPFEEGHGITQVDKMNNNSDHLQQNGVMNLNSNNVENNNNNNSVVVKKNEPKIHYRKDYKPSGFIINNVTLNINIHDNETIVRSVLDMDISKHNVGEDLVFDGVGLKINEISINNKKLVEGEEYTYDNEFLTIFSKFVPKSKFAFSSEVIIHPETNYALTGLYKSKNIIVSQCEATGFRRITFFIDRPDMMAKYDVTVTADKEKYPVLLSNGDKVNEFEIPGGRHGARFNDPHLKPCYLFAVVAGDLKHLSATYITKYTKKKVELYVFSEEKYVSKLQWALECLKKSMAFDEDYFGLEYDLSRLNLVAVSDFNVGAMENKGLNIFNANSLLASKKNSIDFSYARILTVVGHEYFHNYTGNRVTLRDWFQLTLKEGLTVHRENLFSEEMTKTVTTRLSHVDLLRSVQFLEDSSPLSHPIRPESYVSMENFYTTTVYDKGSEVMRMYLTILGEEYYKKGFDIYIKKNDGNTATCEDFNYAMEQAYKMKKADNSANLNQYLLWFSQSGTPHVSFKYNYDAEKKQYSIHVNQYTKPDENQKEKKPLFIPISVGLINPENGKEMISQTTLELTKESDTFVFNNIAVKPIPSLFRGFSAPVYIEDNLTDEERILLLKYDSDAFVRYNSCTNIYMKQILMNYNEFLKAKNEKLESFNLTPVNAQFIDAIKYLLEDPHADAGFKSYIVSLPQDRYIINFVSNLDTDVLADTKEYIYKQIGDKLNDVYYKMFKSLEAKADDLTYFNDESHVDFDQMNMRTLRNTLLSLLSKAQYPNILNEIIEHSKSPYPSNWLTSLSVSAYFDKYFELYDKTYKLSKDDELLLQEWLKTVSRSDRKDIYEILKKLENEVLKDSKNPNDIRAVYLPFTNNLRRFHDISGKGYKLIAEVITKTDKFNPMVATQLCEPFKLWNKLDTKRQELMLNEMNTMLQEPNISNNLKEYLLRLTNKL
As to the kind of experiment: P. falciparum M1AAP inhibitors, biochemical, fluorogenic H-Leu-NHMec substrate, 1536-well (AID 1445).
Take `COC1=CC(C=NNC(=O)C(Cc2c[nH]c3ccccc23)NC(=O)OCC(C)C)C=C([N+](=O)[O-])C1=O` (stereo unspecified) [2-methylpropyl N-[3-(1H-indol-3-yl)-1-[2-[(E)-(3-methoxy-5-nitro-4-oxidanylidene-cyclohexa-2,5-dien-1-ylidene)methyl]hydrazinyl]-1-oxidanylidene-propan-2-yl]carbamate]: the pIC50 was 4.78. In turn, `CCOC(=O)C1C(CC)=Nc2ccccc2N=C1NS(=O)(=O)c1cc(Br)ccc1Br` (stereo unspecified) [MLS000775637] gave a pIC50 of 4.52. The result for `N#C/C(=C\C1C=CC(=O)C([N+](=O)[O-])=C1)c1nc2ccccc2s1` (stereo unspecified) reads 4.47; that for `Clc1ccc(CN=Nc2nnn[nH]2)cc1`, 4.03; that for `CC(NNC(=O)c1ccccc1O)=C1C(=O)c2ccccc2C1=O` [MLS000523164], 4.89. With `COc1ccc(-c2c/c(=N\CCCCCC(=O)O)c3cc(C)ccc3o2)cc1` [[2-(4-methoxyphenyl)-6-methyl-chromen-4-ylidene]-(6-oxidanyl-6-oxidanylidene-hexyl)azanium;perchlorate], the pIC50 is 5.14.

`O=C1NC(=S)NC(=O)C1N=Nc1ccc(-c2ccccc2)cc1[N+](=O)[O-]` [5-[(2-nitro-4-phenylphenyl)hydrazinylidene]-2-sulfanylidene-1,3-diazinane-4,6-dione] showed a pIC50 of 4.98.

Compound `COc1ccc(CN=Nc2nc(O)c(CC(=O)O)s2)cc1OCc1ccc(Cl)cc1` [2-[2-[2-[[3-[(4-chlorophenyl)methoxy]-4-methoxy-phenyl]methylidene]hydrazinyl]-4-oxidanylidene-1,3-thiazol-5-yl]ethanoic acid] showed a pIC50 of 4.18. The compound `COc1cc(C=Nn2c(O)csc2=S)cc(Br)c1O` [3-[[(Z)-(3-bromo-5-methoxy-4-oxo-1-cyclohexa-2,5-dienylidene)methyl]amino]-2-sulfanylidene-4-thiazolidinone] gave a pIC50 of 3.97. In the case of `CCOc1cc(CN=Nc2nc(O)c(CC(=O)O)s2)ccc1OS(=O)(=O)c1ccc(C)cc1` [{2-[(3-ethoxy-4-{[(4-methylphenyl)sulfonyl]oxy}benzylidene)hydrazono]-4-oxo-1,3-thiazolidin-5-yl}acetic acid] it was 4.32; in that of `COC1=CC(C=NNC(=O)[C@H](Cc2c[nH]c3ccccc23)NC(=O)OCC(C)C)C=C([N+](=O)[O-])C1=O` (stereo partly drawn) [N-[(2S)-3-(1H-indol-3-yl)-1-[[(E)-(3-methoxy-5-nitro-4-oxo-1-cyclohexa-2,5-dienylidene)methyl]hydrazo]-1-oxopropan-2-yl]carbamic acid 2-methylpropyl ester], 4.91.

As for `CCOC(=O)C1C(=O)C(=Cc2ccc(OCC(=O)O)c(OCC)c2)SC1=Nc1ccc(C)cc1` (stereo unspecified) [(2-ethoxy-4-{[4-(ethoxycarbonyl)-5-[(4-methylphenyl)amino]-3-oxo-2(3H)-thienylidene]methyl}phenoxy)acetic acid], the pIC50 was 4.31. In the case of `Cc1c(N2C(=O)C(=O)C(C(=O)c3ccc(Cl)cc3)C2c2ccccc2)c(=O)n(-c2ccccc2)n1C` (stereo unspecified) [MLS000331609] it was 4.21; in that of `CCC(=O)N1N=C(C2C(=O)N(C)C(=O)N(C)C2=O)CC1c1ccccc1` (stereo unspecified), 4.38; in that of `COc1ccc(-c2n[nH]c3c2C2(C(=O)N(CC(=O)O)c4ccccc42)C(C#N)C(=N)O3)cc1OC` (stereo unspecified) [2-[6-amino-5-cyano-3-(3,4-dimethoxyphenyl)-2'-oxo-1'-spiro[2H-pyrano[2,3-c]pyrazole-4,3'-indole]yl]acetic acid], 4.36. As to `Cc1cc(=O)[nH]c(N=NCc2c(O)n(-c3ccccc3)c(=O)c3ccccc23)n1` [SMR000221270], the pIC50 was 4.33. `O=C1NC(=S)NC(=O)C1N=Nc1cc2c(cc1[N+](=O)[O-])OCO2` [5-[(6-nitro-1,3-benzodioxol-5-yl)hydrazinylidene]-2-sulfanylidene-1,3-diazinane-4,6-dione] had a pIC50 of 4.57.

`CC(N=Nc1nc(C(=O)O)cs1)c1ccccc1` (stereo unspecified) [2-[2-(1-phenylethylidene)hydrazinyl]-4-thiazolecarboxylic acid] showed a pIC50 of 4.47. For the compound `CCOC(=O)C1C(=O)C(=Cc2ccc(OCC(=O)O)c(OCC)c2)SC1=Nc1ccccc1` (stereo unspecified) [2-[4-[(Z)-(5-anilino-4-ethoxycarbonyl-3-oxo-2-thiophenylidene)methyl]-2-ethoxyphenoxy]acetic acid], the pIC50 was 4.22. Compound `C#CCOCCOCCOCCNc1nc(N2CCN(C(=O)C(Cc3cc4ccccc4[nH]3)n3cc(C(N)C(C)CC)nn3)CC2)nc(N2CCN(C(=O)C(Cc3cc4ccccc4[nH]3)n3cc(C(N)C(C)CC)nn3)CC2)n1` (stereo unspecified) [SMR000391068] gave a pIC50 of 4.14. Take `C/C(Cl)=C\CN1C(=O)C(=NNC(N)=S)c2ccccc21` [[(Z)-[1-[(E)-3-chlorobut-2-enyl]-2-oxoindol-3-ylidene]amino]thiourea]: the pIC50 is 4.20.

Consider `CCCCCCC(=O)N(O)c1cc(O)n(-c2ccccc2)c1O` [SMR000043985], for which the pIC50 was 4.18. On to `COC(=O)CN1C(=O)C2(c3ccccc31)c1c(-c3cccs3)n[nH]c1OC(=N)C2C#N` (stereo unspecified) [methyl (6'-amino-5'-cyano-2-oxo-3'-thien-2-yl-1'H-spiro[indole-3,4'-pyrano[2,3-c]pyrazol]-1(2H)-yl)acetate], for which the pIC50 was 4.44. In the case of `CC1=CC([N+](=O)[O-])=CC(/C=N/NC(=O)C2COc3ccccc3O2)C1=O` (stereo unspecified) [N'-[(E)-(5-methyl-3-nitro-6-oxocyclohexa-2,4-dien-1-ylidene)methyl]-2,3-dihydro-1,4-benzodioxine-3-carbohydrazide], the pIC50 was 5.52. The compound `N#CC(C(=O)CSc1nnc(Cc2cccs2)n1C1CCCCC1)c1nc2ccccc2[nH]1` (stereo unspecified) [MLS000098387] showed a pIC50 of 4.10. Turning to `CCN1C(=O)/C(=N\NC(=O)c2cccs2)c2ccccc21` [MLS000760154], the pIC50 is 4.15. Turning to `O=C(Cn1cnc([N+](=O)[O-])n1)N/N=C/C1C=C(Cl)C=CC1=O` (stereo unspecified) [SMR000312480], the pIC50 was 4.88.

In turn, `CCOc1cc(C2C3=C(CCCC3=O)N=C3CCCC(=O)C32)cc(Cl)c1O` (stereo unspecified) [9-(3-Chloro-5-ethoxy-4-hydroxy-phenyl)-3,4,6,7,9,10-hexahydro-2H,5H-acridine-1,8-dione] showed a pIC50 of 4.62.

With `O=C1CC(c2ccco2)CC(=O)C1=CNc1cc(Cl)ccc1O` (stereo unspecified) [MLS000037985], the pIC50 was 5.25. The result for `COc1ccccc1C1CC(c2ccc(Cl)cc2)=Nc2nc(-n3c(O)ccc3O)nn21` (stereo unspecified) [MLS000040652] reads 4.51; that for `COc1ccc(OC)c(C2C(C(=O)Nc3cccnc3)=C(C)N=C3CCCC(=O)C32)c1` (stereo unspecified) [4-(2,5-dimethoxyphenyl)-2-methyl-5-oxo-N-3-pyridinyl-1,4,5,6,7,8-hexahydro-3-quinolinecarboxamide], 4.28; that for `Cc1nnc(=O)[nH]c1N=NCc1cccs1` [thiophene-2-carbaldehyde (6-methyl-3-oxo-2,3-dihydro-1,2,4-triazin-5-yl)hydrazone], 4.59. Compound `Oc1ccc(O)n1-c1nc2n(n1)C(c1ccccc1)CC(c1ccc(Br)cc1)=N2` (stereo unspecified) [MLS000037189] showed a pIC50 of 4.16. Regarding `O=C(O)c1cccc(-c2ccc(CN=Nc3ccc([N+](=O)[O-])cc3)o2)c1` [MLS000777078], the pIC50 is 4.56.

In turn, `CC(=O)Nc1ccc(S(=O)(=O)Oc2cccc(CN=Nc3nc(O)c(CC(=O)O)s3)c2)cc1` [(2-{[3-({[4-(acetylamino)phenyl]sulfonyl}oxy)benzylidene]hydrazono}-4-oxo-1,3-thiazolidin-5-yl)acetic acid] showed a pIC50 of 4.28. The result for `COc1cc(Br)c(C2c3c(-c4cccnc4)n[nH]c3OC(=N)C2C#N)cc1OC` (stereo unspecified) [SMR000114618] reads 4.35.
